Converted amounts (≈) assume the structure as drawn. Where two headings read alike, the source gives them in different places. One block for each compound: values may come before it.
Columns and labels:
Staphylococcus aureus = assay: MIC, broth microdilution (Example 1); assay type: cell-based; conditions: Staphylococcus aureus, ATCC29213, S. aureus 0100 (ATCC 29213), FIC control; read-out: MIC
Description: (§1) Stock solutions of all antibacterial agents were prepared at 80-fold (80×) the final target concentration in the appropriate solvent and the solution was allowed to stand for 60 minutes. All antibacterial agents were in solution under these conditions. The final drug concentrations in the FIC assay plates were set to bracket the MIC value of each agent for each test organism, unless the strain was totally resistant to the test agent.
(§2) The test organisms were originally received from clinical sources, or from the American Type Culture Collection. Upon receipt, the isolates were streaked onto the appropriate growth medium: Chocolate Agar for H. influenzae, Tryptic Soy Agar II (Becton Dickinson, Sparks, Md.) supplemented with 5% defibrinated sheep blood for streptococci, and unsupplemented Tryptic Soy Agar II for all other organisms. Colonies were harvested from these plates and a cell suspension was prepared in Tryptic Soy Broth (Becton Dickinson) containing cryoprotectant. Aliquots were then frozen at −80° C. On the day prior to assay, the frozen seeds of the organisms to be tested in that session were thawed and streaked for isolation onto the appropriate agar medium plates and incubated overnight at 35° C.
(§3) The test medium for H. influenzae was Haemophilus Test Medium. Streptococci were tested in Mueller Hinton II Broth (Becton Dickinson; Lot 6235472) supplemented with 2% lysed horse blood (Cleveland Scientific, Bath, Ohio; Lot H88621). All other organisms were tested in Mueller Hinton II Broth (Becton Dickinson, Lot 6235472). The broth was prepared at 1.05× normal weight/volume to offset the 5% volume of the drugs in the final test plates.
(§4) In order to select the proper test concentrations for each drug combination, minimal inhibitory concentration (MIC) values were first determined using the broth microdilution method previously described (Clinical and Laboratory Standards Institute. Methods for Dilution Antimicrobial Susceptibility Tests for Bacteria That Grow Aerobically; Approved Standard—Seventh Edition. Clinical and Laboratory Standards Institute document M7-A7 [ISBN 1-56238-587-9]. Clinical and Laboratory Standards Institute, 940 West Valley Road, Suite 1400, Wayne, Pa. 19087-1898 USA, 2006).
(§5) The wells of standard 96-well microdilution plates (Falcon 3918) were filled with 150 μL of 100% DMSO using the Multidrop 384. These plates were used to prepare the drug “mother plates” which provided the serial drug dilutions for the drug combination plates. The Biomek 2000 was used to transfer 150 μl of each stock solution (80×) from the wells in Column 1 of a deep well plate to the corresponding wells in Column 1 of the mother plate and to make seven 2-fold serial dilutions. Two mother plates, one for each drug, were combined to form a “checkerboard” pattern by transfer of equal volumes (using a multi-channel pipette) to the drug combination plate. Row H and Column 8 each contained serial dilutions of one of the agents alone for determination of the MIC.
(§6) Plates were stacked 3 high, covered with a lid on the top plate, placed in plastic bags, and incubated at 35° C. for approximately 20 hours. Following incubation, the microplates were removed from the incubator and viewed from the bottom using a ScienceWare plate viewer. Prepared reading sheets were marked for the MIC of drug 1 (row H), the MIC of drug 2 (column 8) and the wells of the growth-no growth interface.

Haemophilus influenzae = assay: MIC, broth microdilution (Example 1); assay type: cell-based; conditions: Haemophilus influenzae, read-out: MIC
Description: as §1, §2, §3, §4, §5, §6

Streptococcus pneumoniae = assay: MIC, broth microdilution (Example 1); assay type: cell-based
Description: as §1, §2, §3, §4, §5, §6

Escherichia coli = assay: MIC, broth microdilution (Example 1); assay type: cell-based; conditions: Escherichia coli, read-out: MIC
Description: as §1, §2, §3, §4, §5, §6

Klebsiella pneumoniae = assay: MIC, broth microdilution (Example 1); assay type: cell-based; conditions: Klebsiella pneumoniae, read-out: MIC
Description: as §1, §2, §3, §4, §5, §6

ESBL-producing E. coli = assay: Susceptibility testing MIC/MBC, broth microdilution (Example 2); assay type: cell-based, Escherichia coli; conditions: for MBC / MIC: Escherichia coli; for MBC: read-out: MBC; for MIC: read-out: MIC
[1] = system: ESBL-producing Klebsiella pneumoniae; assay: as above; assay type: cell-based; conditions: Klebsiella pneumoniae; for MBC: read-out: MBC
Enterococcus faecalis = assay: MIC, broth microdilution (Example 1); assay type: cell-based; conditions: Enterococcus faecalis, ATCC29212, E. faecalis 0101 (ATCC 29212), FIC control; read-out: MIC
Description: as §1, §2, §3, §4, §5, §6

MIC (Escherichia coli; E. coli 1587): 0.25 µg/mL
MIC (Escherichia coli; E. coli 2273 (ESBL)): 16 µg/mL
MIC (Klebsiella pneumoniae; K. pneumoniae 1340): 0.12 µg/mL
MIC (Klebsiella pneumoniae; K. pneumoniae 1461): 0.25 µg/mL
MIC (ESBL-producing E. coli; E. coli isolate no. 5401): 0.25 µg/mL (≈ 0.574 µM)
MIC (ESBL-producing E. coli; E. coli isolate no. 5411): 8 µg/mL (≈ 18.4 µM)
MIC ([1]; 1 K. pneumoniae isolate, read-out: MIC): 0.5 µg/mL (≈ 1.15 µM)
MIC ([1]; K. pneumonia isolate no. 5427, read-out: MIC): 0.5 µg/mL (≈ 1.15 µM)
MIC ([1]; K. pneumonia isolate no. 5436, read-out: MIC): 64 µg/mL (≈ 147 µM)
MIC ([1]; all K. pneumoniae except 1 isolate, read-out: MIC values): ≥ 8 µg/mL
Compound: C[C@H]1[C@H](NC(=O)/C(=N\OC(C)(C)C(=O)O)c2csc(N)n2)C(=O)N1S(=O)(=O)O [Aztreonam]
MBC (ESBL-producing E. coli; E. coli isolate no. 5401): 0.25 µg/mL (≈ 0.574 µM)
MBC (ESBL-producing E. coli; E. coli isolate no. 5411): 32 µg/mL (≈ 73.5 µM)
MBC ([1]; K. pneumonia isolate no. 5427): 1 µg/mL (≈ 2.3 µM)
MBC ([1]; K. pneumonia isolate no. 5436): 64 µg/mL (≈ 147 µM)

MIC range (ESBL-producing E. coli; E. coli (10) clinical isolates): 0.125 to 256 µg/mL
MIC (ESBL-producing E. coli; E. coli isolate no. 5401): 4 µg/mL (≈ 8.32 µM)
MIC (ESBL-producing E. coli; E. coli isolate no. 5411): 2 µg/mL (≈ 4.16 µM)
Compound: CO/N=C(\C(=O)N[C@@H]1C(=O)N2C(C(=O)[O-])=C(C[N+]3(C)CCCC3)CS[C@H]12)c1csc(N)n1 [Cefepime]
MBC range (ESBL-producing E. coli; E. coli (10) clinical isolates): 0.25 to 512 µg/mL
MBC (ESBL-producing E. coli; E. coli isolate no. 5401): 4 µg/mL (≈ 8.32 µM)
MBC (ESBL-producing E. coli; E. coli isolate no. 5411): 4 µg/mL (≈ 8.32 µM)

Continued, compound first:

Compound: CC1(C)S[C@@H]2[C@H](NC(=O)[C@H](N)c3ccc(O)cc3)C(=O)N2[C@H]1C(=O)O [Amoxicillin]
MIC (Staphylococcus aureus): 4 µg/mL

Compound: CC[C@H]1OC(=O)[C@H](C)[C@@H](O[C@H]2C[C@@](C)(OC)[C@@H](O)[C@H](C)O2)[C@H](C)[C@@H](O[C@@H]2O[C@H](C)C[C@H](N(C)C)[C@H]2O)[C@](C)(O)C[C@@H](C)CN(C)[C@H](C)[C@@H](O)[C@]1(C)O [Azithromycin]
MIC (Haemophilus influenzae; H. influenzae 1224): 1 µg/mL
MIC (Haemophilus influenzae; H. influenzae 2797 (BLNAR)): 1 µg/mL
MIC (Haemophilus influenzae; H. influenzae 2798 (BLNAR)): 2 µg/mL
MIC (Haemophilus influenzae; H. influenzae 2799 (BLNAR)): 0.25 µg/mL
MIC (Streptococcus pneumoniae; S. pneumoniae 0877 (PRSP)): >32^a^ μg/mL
MIC (Streptococcus pneumoniae; Streptococcus pneumoniae, PRSP, S. pneumoniae 0876 (PRSP), read-out: MIC): 2 µg/mL
MIC (Streptococcus pneumoniae; Streptococcus pneumoniae, PRSP, S. pneumoniae 0877 (PRSP), read-out: MIC): > 32 µg/mL
MIC (Streptococcus pneumoniae; Streptococcus pneumoniae, S. pneumoniae 0866 (PSSP), read-out: MIC): 0.06 µg/mL
MIC (Streptococcus pneumoniae; Streptococcus pneumoniae, S. pneumoniae 0869 (PSSP), read-out: MIC): 0.06 µg/mL

Compound: O=C(N[C@H](CO)[C@H](O)c1ccc([N+](=O)[O-])cc1)C(Cl)Cl [Chloramphenicol]
MIC (Enterococcus faecalis): 8 µg/mL
MIC (Staphylococcus aureus): 16 µg/mL
